These results are taken from ChEMBL document CHEMBL4138088, “Novel 1-(7-ethoxy-1-benzofuran-2-yl) substituted chalcone derivatives: Synthesis, characterization and anticancer activity” (Eur J Med Chem, 2017).

Active and inactive are the calls of the source. The calls are words filed in the database; no cut-off is given here.

Common to all, as to type: functional, cell-based
Test [1] has as its system MCF7. As to the kind of experiment: Growth inhibition of human MCF7 cells at 20 uM after 72 hrs by SRB assay. For orientation: Sulforhodamine B stains cellular protein and so reports cell mass.
Test [2] concerns MCF7. As to the kind of experiment: Growth inhibition of human MCF7 cells at 20 uM after 72 hrs by ATP bioluminescence assay.
For test [3], the system named is HCT-116. As to the kind of experiment: Antiproliferative activity against human HCT116 cells after 48 hrs by MTT assay. The settings on record: HCT-116, 48 h. Background: Tetrazolium assays rely on reduction of a dye to a coloured formazan, in cell work by metabolically active cells.
Test [4] relates to HCT-116. As to the kind of experiment: Antiproliferative activity against human HCT116 cells after 6 hrs by MTT assay. The settings on record: HCT-116, 6 h.
In test [5] the test system is HCT-116. As to the kind of experiment: Antiproliferative activity against human HCT116 cells after 12 hrs by MTT assay. The note with it: HCT-116, 12 h.
Test [6] concerns HCT-116. As to the kind of experiment: Antiproliferative activity against human HCT116 cells after 24 hrs by MTT assay. The note with it: HCT-116, 24 h.

`CCOc1cccc2cc(C(=O)/C=C/c3ccc[nH]3)oc12`: the “growth inhibition (GI)” value in the test with MCF7 [1] and with MCF7 [2] was “Active” in each case.

As for `CCOc1cccc2cc(C(=O)/C=C/c3ccco3)oc12`, the “growth inhibition (GI)” value with MCF7 [1] and in the test with MCF7 [2] was “Active” throughout.

For the molecule `COc1cc(/C=C/C(=O)c2cccc(-n3c(C)nc4ccccc4c3=O)c2)ccc1O`, the IC50 with HCT-116 [3] came to 16 µM; in the test with HCT-116 [4] it was 600 µM; in the test on HCT-116 [5] it was 140 µM; in the test on HCT-116 [6], 26 µM.

With `CCOc1cccc2cc(C(=O)/C=C/c3ccc(OC)cc3)oc12`, the “growth inhibition (GI)” value with MCF7 [1] and in the test on MCF7 [2] was “Active” throughout.

As to `CCOc1cccc2cc(C(=O)/C=C/c3cccs3)oc12`, the “growth inhibition (GI)” value in the test on MCF7 [1] and in the test on MCF7 [2] was “Active” each time.

What is called IC50 is the concentration that inhibits the measured activity by half. Low readings indicate inhibition by little substance, high ones a need for much substance.
